Laboratory results as given in publication PMC6893898, “Receptor Interaction Profiles of 4-Alkoxy-Substituted 2,5-Dimethoxyphenethylamines and Related Amphetamines” (Frontiers in Pharmacology, 2019).

How the values were obtained:
rat TAAR1 = target: T1, rat TAAR1 (Rattus norvegicus, UniProt Q923Y9); test: Radioligand binding, rat TAAR1 ([3H]RO5166017)
T1 construct: expressed in transfected cells; host or cells: HEK 293 (membrane preparation)

hNET = hNET (Homo sapiens, UniProt P23975); test: Radioligand binding, NET (N-methyl-[3H]nisoxetine); design: expressed in transfected cells; host or cells: HEK 293 (membrane preparation)
Chain of hNET (P23975 whole entry): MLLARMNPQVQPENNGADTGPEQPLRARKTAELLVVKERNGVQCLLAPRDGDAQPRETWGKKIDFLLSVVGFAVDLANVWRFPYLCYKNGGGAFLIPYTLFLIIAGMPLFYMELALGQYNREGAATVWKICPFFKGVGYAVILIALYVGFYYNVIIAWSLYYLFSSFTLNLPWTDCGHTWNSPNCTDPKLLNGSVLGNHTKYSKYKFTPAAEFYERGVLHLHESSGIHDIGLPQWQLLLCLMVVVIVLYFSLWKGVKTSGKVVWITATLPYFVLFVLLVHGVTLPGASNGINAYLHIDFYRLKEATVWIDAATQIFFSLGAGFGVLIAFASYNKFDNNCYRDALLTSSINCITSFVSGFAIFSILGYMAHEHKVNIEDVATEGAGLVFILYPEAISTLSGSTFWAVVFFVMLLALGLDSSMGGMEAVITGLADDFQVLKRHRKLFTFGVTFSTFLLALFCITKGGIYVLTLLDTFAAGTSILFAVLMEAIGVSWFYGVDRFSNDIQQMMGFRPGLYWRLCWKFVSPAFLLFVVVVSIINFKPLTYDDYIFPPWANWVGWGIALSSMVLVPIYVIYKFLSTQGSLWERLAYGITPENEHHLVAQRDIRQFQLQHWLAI

mouse TAAR1 = target: T2, mouse TAAR1 (Mus musculus, UniProt Q923Y8); test: Radioligand binding, mouse TAAR1 ([3H]RO5166017)
T2 construct: expressed in transfected cells; host or cells: HEK 293 (membrane preparation)
T2 sequence (Q923Y8 whole entry): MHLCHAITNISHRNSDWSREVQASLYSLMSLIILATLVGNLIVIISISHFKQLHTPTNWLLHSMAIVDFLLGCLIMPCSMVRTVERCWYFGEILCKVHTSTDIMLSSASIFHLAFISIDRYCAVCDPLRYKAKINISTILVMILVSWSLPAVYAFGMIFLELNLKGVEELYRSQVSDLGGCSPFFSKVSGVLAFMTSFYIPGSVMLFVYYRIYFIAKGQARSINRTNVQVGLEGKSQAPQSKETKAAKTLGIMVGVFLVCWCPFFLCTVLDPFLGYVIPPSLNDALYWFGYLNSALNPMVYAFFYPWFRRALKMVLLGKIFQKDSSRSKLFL

dopaminergic D2 receptor = target: T3, dopaminergic D2 receptor (Homo sapiens, UniProt P14416); test: Radioligand binding, dopaminergic D2 receptor ([3H]spiperone)
T3 construct: expressed in transfected cells; host or cells: HEK 293 (membrane preparation)
T3 sequence (P14416 whole entry): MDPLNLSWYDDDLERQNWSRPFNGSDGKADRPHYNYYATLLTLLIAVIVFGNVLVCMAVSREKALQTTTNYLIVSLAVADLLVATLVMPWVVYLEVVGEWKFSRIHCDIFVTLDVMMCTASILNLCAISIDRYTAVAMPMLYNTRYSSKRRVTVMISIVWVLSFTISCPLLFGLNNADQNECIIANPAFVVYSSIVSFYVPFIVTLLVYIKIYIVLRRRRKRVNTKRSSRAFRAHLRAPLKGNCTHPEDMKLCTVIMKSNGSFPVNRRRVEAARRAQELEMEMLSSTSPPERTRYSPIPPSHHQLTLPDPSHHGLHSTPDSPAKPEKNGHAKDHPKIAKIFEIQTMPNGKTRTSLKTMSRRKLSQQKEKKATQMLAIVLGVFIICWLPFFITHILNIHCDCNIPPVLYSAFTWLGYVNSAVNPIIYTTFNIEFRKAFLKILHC

hSERT = hSERT (Homo sapiens, UniProt P31645); test: Radioligand binding, SERT ([3H]citalopram); design: expressed in transfected cells; host or cells: HEK 293 (membrane preparation)
Chain of hSERT (P31645 whole entry): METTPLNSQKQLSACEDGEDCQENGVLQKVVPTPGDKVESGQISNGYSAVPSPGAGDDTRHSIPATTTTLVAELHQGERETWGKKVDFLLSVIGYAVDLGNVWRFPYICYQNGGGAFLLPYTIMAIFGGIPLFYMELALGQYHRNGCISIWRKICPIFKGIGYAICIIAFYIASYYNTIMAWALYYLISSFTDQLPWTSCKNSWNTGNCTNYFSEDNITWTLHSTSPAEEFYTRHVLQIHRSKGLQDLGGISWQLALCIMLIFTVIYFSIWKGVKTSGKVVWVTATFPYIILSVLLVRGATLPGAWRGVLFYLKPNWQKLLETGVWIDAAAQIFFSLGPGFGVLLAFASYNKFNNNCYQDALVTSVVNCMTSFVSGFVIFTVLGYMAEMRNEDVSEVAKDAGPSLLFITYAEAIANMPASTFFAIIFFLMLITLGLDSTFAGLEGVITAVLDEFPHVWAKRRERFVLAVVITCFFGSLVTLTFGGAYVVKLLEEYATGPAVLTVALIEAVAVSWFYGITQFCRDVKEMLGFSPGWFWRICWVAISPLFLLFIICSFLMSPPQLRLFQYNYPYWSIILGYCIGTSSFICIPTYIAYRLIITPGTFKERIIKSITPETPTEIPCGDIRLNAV

human TAAR1 = target: T4, human TAAR1 (Homo sapiens, UniProt Q96RJ0); test: Activity at the human TAAR1 (cAMP, HEK 293 cells); format: cell-based; settings: human TAAR1 EC50 ± SD
T4 construct: expressed in transfected cells; host or cells: HEK 293 (recombinant, Geneticin/hygromycin B selection)
T4 sequence (Q96RJ0 1-339): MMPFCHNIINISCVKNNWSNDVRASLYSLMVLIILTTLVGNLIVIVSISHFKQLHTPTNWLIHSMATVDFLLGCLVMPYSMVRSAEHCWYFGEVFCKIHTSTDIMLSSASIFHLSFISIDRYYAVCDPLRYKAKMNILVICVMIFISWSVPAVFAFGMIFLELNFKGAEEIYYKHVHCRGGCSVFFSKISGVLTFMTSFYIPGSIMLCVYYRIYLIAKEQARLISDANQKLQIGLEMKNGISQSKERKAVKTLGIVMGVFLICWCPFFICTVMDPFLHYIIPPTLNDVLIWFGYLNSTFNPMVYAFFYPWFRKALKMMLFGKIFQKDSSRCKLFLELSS
Method: Activity at the human TAAR1 was examined as previously described in full detail ([Luethi et al., 2018]). In summary, human TAAR1 expressing recombinant HEK 293 cells were grown in 250 ml falcon culture flasks containing 30 ml of high glucose DMEM (10% heat inactivated fetal calf serum, 500 µg/ml Geneticin [Gibco, Zug, Switzerland] and 500 µg/ml hygromycin B) at 37°C and 5% CO2/95% air. At 80-90% confluency, the cells were collected. The medium was aspirated, cells were washed with phosphate-buffered saline (PBS) and then trypsinized for 5 min at 37°C with 5 ml of trypsin/EDTA solution. Next, 45 ml of medium was added and the mixture was transferred into a falcon tube. After centrifugation (900 rpm, 3 min, RT), the supernatant was aspirated and the remaining cell pellet was resuspended in fresh medium to […]. Using a multipipette, 100 µl of cells were transferred (80,000 cells/well) into a 96-well plate (BIOCOAT 6640, Becton Dickinson, Allschwil, Switzerland) and incubated for 20 h at 37°C. For the cAMP assay, the medium was aspirated replaced with 50 µL PBS without Ca^2+ and Mg^2+ ions. The PBS was then extracted using snap inversion and the plate was softly tapped against tissue; 90 µL of Krebs-Ringer Bicarbonate buffer (Sigma-Aldrich) containing 1 mM IBMX was added and incubated for 60 min at 37°C and 5% CO2/95% air. A concentration range between 300 pM and 30 µM of test compounds was examined in duplicate. A standard curve with a range of cAMP concentrations (0.13 nM to 10 µM) was created per 96-well plate. Each experiment was accompanied with a reference plate that included three compounds; RO5256390, β-phenylethylamine, and p-tyramine. The cells were exposed to either 30 µl of compound solution, 30 µl of β-phenylethylamine (as maximal response), or a basal control in PBS (containing 1 mM IBMX) for 40 min at 37°C. Next, under forceful shaking using black lids, the cells were exposed to 50 µl of 3x detection mix solution (composed of Ru-cAMP Alexa700 anti-cAMP antibody and lysis buffer) for 120 min at room temperature in order to lyse the cells. Using the NanoScan reader (Innovative Optische Messtechnik, Berlin, Germany; 456 nm excitation wavelength; 630 and 700 nm emission wavelengths), the fluorescence was examined and the fluorescence resonance energy transfer (FRET) signal was determined using the following equation; FRET (700 nm) − P × FRET (630 nm), where P = Ru (700 nm)/Ru (630 nm). Receptor binding affinity at the human TAAR1 was not determined since unfortunately, there are no suitable radioligands available for this receptor.
Functional activity of the derivatives was only examined at the human TAAR1 and not at the mouse and rat TAAR1, because functional assays are not set up.

5-HT2C receptor = target: T5, 5-HT2C receptor (Homo sapiens, UniProt P28335); test: biochemical; format: binding; settings: for Ki: [3H]mesulgerine, read-out: h5-HT2C Receptor binding Ki ± SD
T5 construct: expressed in transfected cells; host or cells: HEK 293 (membrane preparation)
T5 sequence (P28335 33-458): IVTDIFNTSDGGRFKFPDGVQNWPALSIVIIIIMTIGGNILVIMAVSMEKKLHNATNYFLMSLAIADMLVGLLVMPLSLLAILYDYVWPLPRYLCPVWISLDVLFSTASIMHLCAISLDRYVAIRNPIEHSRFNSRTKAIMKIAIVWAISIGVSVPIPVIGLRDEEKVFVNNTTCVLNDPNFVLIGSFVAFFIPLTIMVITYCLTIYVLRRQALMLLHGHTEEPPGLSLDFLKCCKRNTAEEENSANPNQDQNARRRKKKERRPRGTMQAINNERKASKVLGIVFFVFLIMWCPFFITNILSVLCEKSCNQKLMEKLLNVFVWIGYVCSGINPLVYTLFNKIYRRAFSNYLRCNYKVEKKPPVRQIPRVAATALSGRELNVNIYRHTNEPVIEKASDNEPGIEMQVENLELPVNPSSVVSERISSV

5-HT1A receptor = target: T6, 5-HT1A receptor (Homo sapiens, UniProt P08908); test: Radioligand binding, 5-HT1A receptor ([3H]8-OH-DPAT)
T6 construct: expressed in transfected cells; host or cells: HEK 293 (membrane preparation)
T6 sequence (P08908 1-422): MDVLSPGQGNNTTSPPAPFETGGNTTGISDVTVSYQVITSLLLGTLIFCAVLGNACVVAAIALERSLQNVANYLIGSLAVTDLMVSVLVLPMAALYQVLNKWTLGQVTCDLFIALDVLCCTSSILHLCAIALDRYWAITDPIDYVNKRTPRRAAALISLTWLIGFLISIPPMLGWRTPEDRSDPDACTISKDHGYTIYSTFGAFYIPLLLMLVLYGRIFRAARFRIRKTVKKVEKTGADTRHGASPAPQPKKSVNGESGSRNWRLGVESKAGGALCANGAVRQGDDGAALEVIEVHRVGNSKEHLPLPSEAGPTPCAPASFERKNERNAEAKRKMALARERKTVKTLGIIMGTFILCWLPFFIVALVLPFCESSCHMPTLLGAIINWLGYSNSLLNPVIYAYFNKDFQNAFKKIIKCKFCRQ

T1 sequence (Q923Y9 whole entry): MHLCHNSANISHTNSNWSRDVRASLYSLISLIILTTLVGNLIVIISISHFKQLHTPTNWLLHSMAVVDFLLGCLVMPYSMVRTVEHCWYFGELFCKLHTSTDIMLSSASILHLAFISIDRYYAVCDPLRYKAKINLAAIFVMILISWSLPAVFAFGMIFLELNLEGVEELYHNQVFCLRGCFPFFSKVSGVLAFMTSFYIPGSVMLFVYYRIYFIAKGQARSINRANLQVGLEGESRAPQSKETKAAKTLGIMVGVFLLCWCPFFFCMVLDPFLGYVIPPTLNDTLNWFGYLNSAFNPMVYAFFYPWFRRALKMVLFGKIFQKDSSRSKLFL

COc1cc(OCC(F)(F)F)c(OC)cc1CCN [2C-O-22, 2,5-dimethoxy-4-(2,2,2-trifluoroethoxy)phenethylamine]
Ki (rat TAAR1): 0.24 ± 0.06 µM
Ki (hNET): > 9.7 µM
Ki (mouse TAAR1): 2.5 ± 0.4 µM
Ki (dopaminergic D2 receptor): > 4.8 µM
Ki (hSERT): > 8.6 µM
EC50 (human TAAR1): 3.6 ± 2.4 µM
Ki (5-HT2C receptor): 1.9 ± 0.4 µM
Ki (5-HT1A receptor): 3.3 ± 0.2 µM

COc1cc(OC(C)C)c(OC)cc1CC(C)N (stereo not drawn) [MIPM, 2,5-dimethoxy-4-isopropoxyamphetamine]
Ki (rat TAAR1): 2.9 ± 0.7 µM
Ki (hNET): > 9.7 µM
Ki (mouse TAAR1): > 4.8 µM
Ki (dopaminergic D2 receptor): > 4.8 µM
Ki (hSERT): > 8.6 µM
EC50 (human TAAR1): > 30 µM
Reduction of 5-HT2C binding affinity compared to TMA-2 (19) (5-HT2C receptor): 2 fold
Ki (5-HT2C receptor): 9.03 ± 2.39 µM
Ki (5-HT1A receptor): > 5.6 µM

COc1cc(OCc2ccccc2)c(OC)cc1CCN [2C-O-27, 4-benzyloxy-2,5-dimethoxyphenethylamine]
Ki (rat TAAR1): 0.021 ± 0.003 µM
Ki (hNET): > 9.7 µM
Ki (mouse TAAR1): 0.65 ± 0.19 µM
Ki (dopaminergic D2 receptor): > 4.8 µM
Ki (hSERT): > 8.6 µM
EC50 (human TAAR1): > 30 µM
Ki (5-HT2C receptor): 0.11 ± 0.05 µM
Ki (5-HT1A receptor): 2.7 ± 0.1 µM

C=C(C)COc1cc(OC)c(CCN)cc1OC [2C-O-3, 2,5-dimethoxy-4-methallyloxyphenethylamine]
Ki (rat TAAR1): 0.13 µM
Ki (hNET): > 9.7 µM
Ki (mouse TAAR1): 1.1 ± 0.4 µM
Ki (dopaminergic D2 receptor): > 4.8 µM
Ki (hSERT): > 8.6 µM
EC50 (human TAAR1): > 30 µM
Ki (5-HT2C receptor): 0.15 ± 0.03 µM
Ki (5-HT1A receptor): 2.7 ± 0.2 µM

C=CCOc1cc(OC)c(CC(C)N)cc1OC (stereo not drawn) [MALM, 4-allyloxy-2,5-dimethoxyamphetamine]
Higher rat TAAR1 affinity than TMA-2 (19) and MIPM (18) (rat TAAR1): 3 fold
Ki (rat TAAR1): 1.1 ± 0.2 µM
Ki (hNET): > 9.7 µM
Ki (mouse TAAR1): 2 ± 0.4 µM
Ki (dopaminergic D2 receptor): > 4.4 µM
Ki (hSERT): > 8.6 µM
EC50 (human TAAR1): > 30 µM
Enhancement of 5-HT2C binding affinity compared to TMA-2 (19) (5-HT2C receptor): 6 fold
Ki (5-HT2C receptor): 0.9 ± 0.22 µM
Ki (5-HT1A receptor): > 5.6 µM

COc1cc(OCC(F)F)c(OC)cc1CCN [2C-O-21.5, 4-(2,2-difluoroethoxy)-2,5-dimethoxyphenethylamine]
Ki (rat TAAR1): 0.25 ± 0.02 µM
Ki (hNET): > 9.7 µM
Ki (mouse TAAR1): > 4.8 µM
Ki (dopaminergic D2 receptor): > 4.8 µM
Ki (hSERT): > 8.6 µM
EC50 (human TAAR1): > 30 µM
Ki (5-HT2C receptor): 4.2 ± 1.5 µM
Ki (5-HT1A receptor): 2.9 ± 0.2 µM

CCOc1cc(OC)c(CCN)cc1OC [2C-O-2, 2,5-dimethoxy-4-ethoxyphenethylamine]
Ki (rat TAAR1): 0.34 ± 0.07 µM
Ki (hNET): > 9.7 µM
Ki (mouse TAAR1): 4 ± 1.1 µM
Ki (dopaminergic D2 receptor): > 4.8 µM
Ki (hSERT): > 8.6 µM
EC50 (human TAAR1): 9.6 ± 6.34 µM
Ki (5-HT2C receptor): 2.3 ± 1.2 µM
Ki (5-HT1A receptor): 3.6 ± 0.4 µM

COc1cc(OCCF)c(OC)cc1CC(C)N (stereo not drawn) [MFEM, 2,5-dimethoxy-4-(2-fluoroethoxy)amphetamine]
Ki (rat TAAR1): 1.64 ± 0.3 µM
Ki (hNET): > 9.7 µM
Ki (mouse TAAR1): > 4.9 µM
Ki (dopaminergic D2 receptor): > 4.8 µM
Ki (hSERT): > 8.6 µM
EC50 (human TAAR1): > 30 µM
Ki (5-HT2C receptor): 11 ± 3 µM
Ki (5-HT1A receptor): > 5.6 µM

C=CCOc1cc(OC)c(CCN)cc1OC [2C-O-16, 4-allyloxy-2,5-dimethoxyphenethylamine]
Ki (rat TAAR1): 0.26 ± 0.07 µM
Ki (hNET): > 9.7 µM
Ki (mouse TAAR1): 2.5 ± 1 µM
Ki (dopaminergic D2 receptor): > 4.8 µM
Ki (hSERT): > 8.6 µM
EC50 (human TAAR1): > 30 µM
Ki (5-HT2C receptor): 0.47 ± 0.04 µM
Ki (5-HT1A receptor): 4.5 ± 0.5 µM

COc1cc(OCC(F)F)c(OC)cc1CC(C)N (stereo not drawn) [MDFEM, 4-(2,2-difluoroethoxy)-2,5-dimethoxyamphetamine]
Ki (rat TAAR1): 1.2 ± 0.2 µM
Ki (hNET): > 9.7 µM
Ki (mouse TAAR1): > 4.8 µM
Ki (dopaminergic D2 receptor): > 4.8 µM
Ki (hSERT): > 8.6 µM
EC50 (human TAAR1): > 30 µM
Increase in 5-HT2C binding affinity compared to MFEM (15) (5-HT2C receptor): 2 fold
Ki (5-HT2C receptor): 6.7 ± 2.4 µM
Ki (5-HT1A receptor): > 5.6 µM

COc1cc(OCC(F)(F)F)c(OC)cc1CC(C)N (stereo not drawn) [MTFEM, 2,5-dimethoxy-4-(2,2,2-trifluoroethoxy)amphetamine]
Ki (rat TAAR1): 1.3 ± 0.1 µM
Ki (hNET): > 9.7 µM
Ki (mouse TAAR1): 4.5 ± 0.5 µM
Ki (dopaminergic D2 receptor): > 4.8 µM
Ki (hSERT): > 8.6 µM
EC50 (human TAAR1): > 30 µM
Increase in 5-HT2C binding affinity compared to MFEM (15) (5-HT2C receptor): ~5 fold
Ki (5-HT2C receptor): 2.4 ± 0.8 µM
Ki (5-HT1A receptor): > 5.6 µM

C=C(C)COc1cc(OC)c(CC(C)N)cc1OC (stereo not drawn) [MMALM, 2,5-dimethoxy-4-methallyloxyamphetamine]
Higher rat TAAR1 affinity than TMA-2 (19) and MIPM (18) (rat TAAR1): 5 fold
Ki (rat TAAR1): 0.63 ± 0.15 µM
Ki (hNET): > 9.7 µM
Ki (mouse TAAR1): 1.7 ± 0.9 µM
Ki (dopaminergic D2 receptor): > 4.8 µM
Ki (hSERT): > 8.6 µM
EC50 (human TAAR1): > 30 µM
Enhancement of 5-HT2C binding affinity compared to TMA-2 (19) (5-HT2C receptor): 18 fold
Ki (5-HT2C receptor): 0.29 ± 0.11 µM
